Assay results reported in ChEMBL document CHEMBL1157550, “Incorporation of fluorinated phenylalanine generates highly specific inhibitor of proteasome's chymotrypsin-like sites” (J Med Chem, 2010).
The source made the active and inactive calls. The rule behind the calls is not given here.

How the values were obtained:
Assay type in all cases: cell-free
[1] = molecular target: T1, Proteasome component C5 (Homo sapiens) (UniProt P20618); assay: Displacement of fluorescent labeled MV151 from 26S proteasome beta 1 in human HEK293 cell lysate assessed as disappearance of band at 0.1 to 1 uM after 1 hr by SDS-PAGE
T1 sequence (whole entry): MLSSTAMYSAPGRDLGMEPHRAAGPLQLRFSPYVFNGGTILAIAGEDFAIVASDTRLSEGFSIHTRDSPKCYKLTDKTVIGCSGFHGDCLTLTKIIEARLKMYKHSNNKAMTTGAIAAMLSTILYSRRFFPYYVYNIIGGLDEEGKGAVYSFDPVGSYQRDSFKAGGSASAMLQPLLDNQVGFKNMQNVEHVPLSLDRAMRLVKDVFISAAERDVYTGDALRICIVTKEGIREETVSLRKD

[2] = molecular target: T2, Proteasome Macropain subunit MB1 (Homo sapiens) (UniProt P28074); assay: Displacement of fluorescent labeled MV151 from 26S proteasome beta 5 in human HEK293 cell lysate assessed as disappearance of band at 0.1 to 1 uM after 1 hr by SDS-PAGE
T2 sequence (whole entry): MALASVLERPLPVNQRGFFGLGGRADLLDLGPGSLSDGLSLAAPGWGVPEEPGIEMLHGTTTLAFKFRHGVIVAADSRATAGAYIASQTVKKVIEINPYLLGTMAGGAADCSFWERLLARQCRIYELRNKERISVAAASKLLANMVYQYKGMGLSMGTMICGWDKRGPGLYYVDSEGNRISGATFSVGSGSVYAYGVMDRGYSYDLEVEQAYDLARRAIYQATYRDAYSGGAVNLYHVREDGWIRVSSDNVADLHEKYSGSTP

[3] = molecular target: Proteasome Macropain subunit (Homo sapiens) (UniProt P49721); assay: Inhibition of 26S proteasome beta 2 in human HEK293 cell lysate assessed as residual activity at 0.006 uM after 1 hr
Sequence of Proteasome Macropain subunit (Homo sapiens) (P49721 whole entry): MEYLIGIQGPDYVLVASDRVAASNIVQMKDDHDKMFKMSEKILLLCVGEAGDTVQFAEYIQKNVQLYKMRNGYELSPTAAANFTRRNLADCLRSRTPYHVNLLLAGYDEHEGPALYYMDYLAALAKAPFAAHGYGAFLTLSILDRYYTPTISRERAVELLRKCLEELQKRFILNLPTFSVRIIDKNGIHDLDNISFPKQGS

[4] = molecular target: T1, Proteasome component C5 (Homo sapiens); assay: Inhibition of 26S proteasome beta 1 in human HEK293 cell lysate assessed as residual activity at 1.5 uM after 1 hr
[5] = molecular target: T1, Proteasome component C5 (Homo sapiens); assay: Inhibition of 26S proteasome beta 1 in human HEK293 cell lysate assessed as residual activity at 0.167 uM after 1 hr
[6] = molecular target: Proteasome Macropain subunit (Homo sapiens) (UniProt P49721); assay: Inhibition of 26S proteasome beta 2 in human HEK293 cell lysate assessed as residual activity at 0.019 uM after 1 hr
[7] = molecular target: T1, Proteasome component C5 (Homo sapiens); assay: Inhibition of 26S proteasome beta 1 in human HEK293 cell lysate assessed as residual activity at 13.5 uM after 1 hr
[8] = molecular target: T1, Proteasome component C5 (Homo sapiens); assay: Inhibition of 26S proteasome beta 1 in human HEK293 cell lysate assessed as residual activity at 0.006 uM after 1 hr
[9] = molecular target: T1, Proteasome component C5 (Homo sapiens); assay: Inhibition of 26S proteasome beta 1 in human HEK293 cell lysate assessed as residual activity at 0.001 uM after 1 hr
[10] = molecular target: T1, Proteasome component C5 (Homo sapiens); assay: Inhibition of 26S proteasome beta 1 in human HEK293 cell lysate assessed as residual activity at 0.019 uM after 1 hr
[11] = molecular target: Proteasome Macropain subunit (Homo sapiens) (UniProt P49721); assay: (§1) Inhibition of 26S proteasome beta 2 in human HEK293 cell lysate assessed as residual activity at […] after 1 hr
[12] = molecular target: T1, Proteasome component C5 (Homo sapiens); assay: (§2) Inhibition of 26S proteasome beta 1 in human HEK293 cell lysate assessed as residual activity at […] after 1 hr
[13] = molecular target: Proteasome Macropain subunit (Homo sapiens) (UniProt P49721); assay: Inhibition of 26S proteasome beta 2 in human HEK293 cell lysate assessed as residual activity at 1.5 uM after 1 hr
[14] = molecular target: Proteasome Macropain subunit (Homo sapiens) (UniProt P49721); assay: Inhibition of 26S proteasome beta 2 in human HEK293 cell lysate assessed as residual activity at 13.5 uM after 1 hr
[15] = molecular target: Proteasome Macropain subunit (Homo sapiens) (UniProt P49721); assay: Inhibition of 26S proteasome beta 2 in human HEK293 cell lysate assessed as residual activity at 0.5 uM after 1 hr
[16] = molecular target: Proteasome Macropain subunit (Homo sapiens) (UniProt P49721); assay: Inhibition of 26S proteasome beta 2 in human HEK293 cell lysate assessed as residual activity at 0.002 uM after 1 hr
[17] = molecular target: T1, Proteasome component C5 (Homo sapiens); assay: as §2; remark: listed apart in the source
[18] = molecular target: Proteasome Macropain subunit (Homo sapiens) (UniProt P49721); assay: as §1; remark: listed apart in the source
[19] = molecular target: T1, Proteasome component C5 (Homo sapiens); assay: Inhibition of 26S proteasome beta 1 in human HEK293 cell lysate assessed as residual activity at 0.5 uM after 1 hr
[20] = molecular target: Proteasome Macropain subunit (Homo sapiens) (UniProt P49721); assay: Inhibition of 26S proteasome beta 2 in human HEK293 cell lysate assessed as residual activity at 0.167 uM after 1 hr
[21] = molecular target: Proteasome Macropain subunit (Homo sapiens) (UniProt P49721); assay: Inhibition of 26S proteasome beta 2 in human HEK293 cell lysate assessed as residual activity at 0.001 uM after 1 hr
[22] = molecular target: T1, Proteasome component C5 (Homo sapiens); assay: Inhibition of 26S proteasome beta 1 in human HEK293 cell lysate assessed as residual activity at 0.002 uM after 1 hr
[23] = molecular target: Proteasome Macropain subunit (Homo sapiens) (UniProt P49721); assay: Displacement of fluorescent labeled MV151 from 26S proteasome beta 2 in human HEK293 cell lysate assessed as residual activity at 1 uM after 1 hr by SDS-PAGE
[24] = molecular target: T2, Proteasome Macropain subunit MB1 (Homo sapiens); assay: Displacement of fluorescent labeled MV151 from 26S proteasome beta 5 in human HEK293 cell lysate assessed as residual activity at 1 uM after 1 hr by SDS-PAGE
[25] = molecular target: Proteasome Macropain subunit (Homo sapiens) (UniProt P49721); assay: Displacement of fluorescent labeled MV151 from 26S proteasome beta 2 in human HEK293 cell lysate assessed as residual activity at 100 uM after 1 hr by SDS-PAGE
[26] = molecular target: T1, Proteasome component C5 (Homo sapiens); assay: Displacement of fluorescent labeled MV151 from 26S proteasome beta 1 in human HEK293 cell lysate assessed as residual activity at 100 uM after 1 hr by SDS-PAGE
[27] = molecular target: T2, Proteasome Macropain subunit MB1 (Homo sapiens); assay: Displacement of fluorescent labeled MV151 from 26S proteasome beta 5 in human HEK293 cell lysate assessed as residual activity at 100 uM after 1 hr by SDS-PAGE
[28] = molecular target: T1, Proteasome component C5 (Homo sapiens); assay: Displacement of fluorescent labeled MV151 from 26S proteasome beta 1 in human HEK293 cell lysate assessed as residual activity at 1 uM after 1 hr by SDS-PAGE

Row | Activity [1] | Activity [2] | Activity [3] [%] | Activity [4] [%] | Activity [5] [%] | Activity [6] [%] | Activity [7] [%] | Activity [8] [%] | Activity [9] [%] | Activity [10] [%] | Activity [11] [%] | Activity [12] [%] | Activity [13] [%] | Activity [14] [%] | Activity [15] [%] | Activity [16] [%] | Activity [17] [%] | Activity [18] [%] | Activity [19] [%] | Activity [20] [%] | SMILES | other results
1 | Active | Active | – | – | – | – | – | – | – | – | – | – | – | – | – | – | – | – | – | – | CC(C)C[C@H](NC(=O)[C@H](Cc1ccccc1)NC(=O)c1cnccn1)B1OC2C[C@@H]3C[C@@H](C3(C)C)[C@]2(C)O1 (some centres undefined) | –
2 | Active | Active | 104 | 12 | 68.7 | 102 | 1.3 | 97.5 | 110 | 99.5 | 118 | 92.1 | 135 | 110 | 118 | 99 | 3.1 | 118 | 40.4 | 121 | CC(C)C[C@H](NC(=O)[C@H](Cc1c(F)c(F)c(F)c(F)c1F)NC(=O)c1cnccn1)B1OC2C[C@@H]3C[C@@H](C3(C)C)[C@]2(C)O1 (some centres undefined) | Activity [21]: 110%; Activity [22]: 96.1%
3 | – | – | – | – | – | – | – | – | – | – | – | – | – | – | – | – | – | – | – | – | CC(C)C[C@H](NC(=O)[C@H](Cc1c(F)c(F)c(F)c(F)c1F)NC(=O)[C@H](Cc1c(F)c(F)c(F)c(F)c1F)NC(=O)[C@H](Cc1ccccc1)N=[N+]=[N-])C(=O)[C@@]1(C)CO1 | Activity [23]: 20.4%; Activity [24]: 94.9%; Activity [25]: 43.2%; Activity [26]: 115%; Activity [27]: 7.4%; Activity [28]: 148%
4 | – | – | 90.7 | 90.1 | 99.5 | 109 | 71.2 | 77.3 | 100 | 104 | 71 | 105 | 84.2 | 54.1 | 95.6 | 106 | 77.6 | 120 | 98.3 | 112 | CC(C)C[C@H](NC(=O)[C@H](Cc1c(F)c(F)c(F)c(F)c1F)NC(=O)[C@H](Cc1ccccc1)NC(=O)[C@H](Cc1ccccc1)N=[N+]=[N-])C(=O)[C@@]1(C)CO1 | Activity [24]: 11.6%; Activity [25]: 116%; Activity [26]: 15.4%; Activity [21]: 105%; Activity [22]: 106%; Activity [28]: 248%
